Laboratory results from patent publication US7078537B2, “Phenylalkyl diamine and amide analogs” (SK Corporation, priority 2001, dated 2006).
Where two headings read alike, the source gives them in different places.

Key:
sigma-2 receptor = molecular target: T1, sigma-2 receptor (Cavia porcellus, UniProt H0V073); experiment: Sigma-2 binding assay ([3H]DTG in the presence of (+)-SKF10047); details: guinea pig brain membranes, read-out: Sigma 2 Inhib. %
T1 construct: their whole brains (without cerebellum) were rapidly removed and homogenized; from tissue; host or cells: guinea pig (male Hartley) whole brain without cerebellum, membrane homogenate
T1 sequence (H0V073 1-176): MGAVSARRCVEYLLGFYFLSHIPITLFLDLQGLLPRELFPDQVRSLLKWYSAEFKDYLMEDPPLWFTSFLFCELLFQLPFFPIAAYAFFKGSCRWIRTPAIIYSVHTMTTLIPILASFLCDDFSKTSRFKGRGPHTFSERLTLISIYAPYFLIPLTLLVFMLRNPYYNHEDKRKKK
Experimental: (§1) Sigma-1 and Sigma-2 Binding Assay Methods
(§2) Compounds of the present inventions were tested for selective binding to the sigma-1 receptor and sigma-2 receptor as modified from Chaki et al. Eur. J. Pharmacol. 1994, 251, R1. and Akunne et al., Neuropharmacology, 1997, 36(1), 51.
(§3) Tissue Homogenate Preparation for Sigma-1 Binding Assay and Sigma-2 Binding Assay
(§4) Male Hartley guinea pigs each weighing 300–400 g were used in sigma subtype binding assay. Guinea pigs were killed by decapitation and their whole brains (without cerebellum) were rapidly removed and homogenized in 25 volumes(W/V) of ice-cold 50 mM Tris-HCl buffer(pH 7.4 buffer for sigma-1 binding assay and pH 8.0 buffer for sigma-2 binding assay). The homogenate was centrifuged in 48,000×g for 10 min at 4° C. The supernatant was discarded and the resulting pellets were resuspended in the sane volume of buffer and recentrifuged as described above. The pellets were resuspended and washed twice more in the same manner as described above. The final pellets were resuspended in 10 volumes(W/V) of ice-cold 50 mM Tris-HCl buffer to enable distribution of 2 ml aliquot in microcentrifuge tube, which were used immediately or kept at −80° C. for no more than 1 month before use.
Sigma-2 Binding Assay([^3H]DTG)
The Sigma-2 selective binding assay was performed using 3.6 nM[^3H]DTG as the radioligand in the presence of 200 nM (+)-SKF10047 to block the Sigma-1 sites, with […] of guinea pig brain membranes in a total volume of 0.5 ml of 50 mM TRIS-HCl, pH8.0. Non-specific binding was determined in the presence of […]. Incubation condition and other manipulations were as described above for sigma-1 binding assay.
(§5) IC50 values for sigma-1 or -2 binding assay were calculated using KELL RADLIG v.6.0.5.

sigma-1 receptor = molecular target: T2, sigma-1 receptor (Cavia porcellus, UniProt Q60492); experiment: Sigma-1 binding assay ([3H](+)-pentazocine); details: guinea pig brain membranes; for inhibition at 0.01 µM: inhibition % at 10 nM, [3H](+)-pentazocine, Table II, read-out: Sigma 1 Inhib. %; for IC50: [3H](+)-pentazocine 2.4 nM, Table I
T2 construct: their whole brains (without cerebellum) were rapidly removed and homogenized; from tissue; host or cells: guinea pig (male Hartley) whole brain without cerebellum, membrane homogenate
T2 sequence (Q60492 whole entry): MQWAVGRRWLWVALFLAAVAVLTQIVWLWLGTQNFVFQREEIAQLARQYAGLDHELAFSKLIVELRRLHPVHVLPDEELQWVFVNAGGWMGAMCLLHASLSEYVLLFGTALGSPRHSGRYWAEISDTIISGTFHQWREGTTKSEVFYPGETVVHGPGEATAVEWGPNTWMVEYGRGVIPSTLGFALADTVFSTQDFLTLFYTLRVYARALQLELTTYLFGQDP
Experimental: as §1, §2, §3, §4
Sigma-1 Binding Assay ([^3H](+)pentazocine)
The sigma-1 selective binding assay was performed using [^3H](+)-pentazocine as the radioligand (2.4 nM final concentration unless otherwise specified) and approximately […] of guinea pig brain membranes in a final volume of […] of 50 mM TRISHCl, pH7.4. Non-specific binding was determined in the presence of […]. For the standard equilibrium assay, the mixtures were incubated for 2 hours at 25°, and rapidly filtered over Whatman GF/C glass fiber filters, followed by three 4.5 ml rinses with ice-cold incubation buffer. The filters were placed in counting vials and 4 ml scintillation solution. The vials were counted in a Beckman scintillation counter.
as §5

[1] = inhibition % at 10 nM, [3H]DTG, Table II
[2] = Inhibition % at 10 nM, [3H]DTG 3.6 nM, Table I

inhibition at 0.01 µM (sigma-2 receptor; [1]) | inhibition at 0.01 µM (sigma-1 receptor) | Structure (SMILES) | IC50 (sigma-1 receptor) | inhibition at 0.01 µM (sigma-2 receptor; [2])
6.1% | 52.7% | CC(C)(C)c1ccc(CC(CN2CCC(Cc3ccccc3)CC2)NC=O)cc1 (stereo not shown) |  | 
37.8% | 67.7% | O=CNC(Cc1ccc(Cl)c(Cl)c1)CN1CCCCCC1 (stereo not shown) |  | 
38.2% | 26.1% | CC(C)(C)c1ccc(CC(N)CN2CCC(Cc3ccccc3)CC2)cc1 (stereo not shown) |  | 
 |  | CN(C)C(Cc1ccc(C(C)(C)C)cc1)CN1CCCCCC1 (stereo not shown) | 2.1 nM | 
57.7% | 20.3% | CN(C)C(CCN1CCC(Cc2ccccc2)CC1)c1ccccc1 (stereo not shown) |  | 
41.6% | 34.5% | NC(Cc1ccc(Cl)cc1)CN1CCC(C(=O)c2cccc(Cl)c2)CC1 (stereo not shown) |  | 
 |  | NC(Cc1ccc(Cl)cc1)CN1CCCCCC1 (stereo not shown) | 13.9 nM | 36.8%
51.7% | 24.7% | NC(Cc1ccc(Cl)cc1)CN1CCC(C(=O)c2ccc(Cl)c(Cl)c2)CC1 (stereo not shown) |  | 
61% | 73.2% | NC(Cc1ccc(Cl)cc1Cl)CN1CCCCCC1 (stereo not shown) |  | 
 |  | CN(C(=O)Cc1ccc(Cl)c(Cl)c1)C(Cc1ccc(C(C)(C)C)cc1)CN1CCCCCC1 (stereo not shown) | 35.7 nM | 51.4%
 |  | NC(Cc1ccc(C(F)(F)F)cc1)CN1CCCCCC1 (stereo not shown) | 2 nM | 43.9%
31% | 19.5% | COc1ccc(C(=O)C2CCN(CC(N)Cc3ccc(Cl)cc3)CC2)cc1 (stereo not shown) |  | 
61.1% | 66.7% | N[C@@H](Cc1ccccc1)CN1CCC(C(=O)c2ccc(F)cc2)CC1 |  | 
11.4% | 35.6% | O=S(=O)(NC(CCN1CCC(Cc2ccccc2)CC1)c1ccccc1)c1ccccc1 (stereo not shown) |  | 
16.9% | 11.2% | N[C@H](Cc1ccccc1)CN1CCC(C(=O)c2ccccc2)CC1 |  | 
48.3% | 57.3% | NC(Cc1ccc(Cl)c(Cl)c1)CN1CCC(Cc2ccccc2)CC1 (stereo not shown) |  | 
39.8% | 49.1% | COc1ccc(C(=O)C2CCN(C[C@@H](N)Cc3ccccc3)CC2)cc1 |  | 
3.1% | 31.6% | O=[N+]([O-])c1ccccc1S(=O)(=O)NC(CCN1CCC(Cc2ccccc2)CC1)c1ccccc1 (stereo not shown) |  | 
33.3% | 39.8% | N[C@@H](Cc1ccccc1)CN1CCC(C(=O)c2ccccc2)CC1 |  | 
43.1% | 66.2% | CC(C)(C)c1ccc(C(=O)C2CCN(C[C@@H](N)Cc3ccccc3)CC2)cc1 |  | 
50% | 38.9% | NC(Cc1ccc(Cl)cc1)CN1CCC(C(=O)c2ccccc2)CC1 (stereo not shown) |  | 

inhibition at 0.01 µM (sigma-2 receptor; [1]) | inhibition at 0.01 µM (sigma-1 receptor) | Structure (SMILES) | IC50 (sigma-1 receptor) | inhibition at 0.01 µM (sigma-2 receptor; [2])
34.7% | 15.3% | NC(Cc1ccc(Cl)cc1Cl)CN1CCC(C(=O)c2ccccc2)CC1 (stereo not shown) |  | 
32.5% | 9.3% | NC(CCCCN1CCCCCC1)c1ccccc1 (stereo not shown) |  | 
21.7% | 33.6% | NC(Cc1c(Cl)cccc1Cl)CN1CCCCCC1 (stereo not shown) |  | 
75% | 75.6% | CNC(Cc1ccc(Cl)cc1Cl)CN1CCC(Cc2ccccc2)CC1 (stereo not shown) |  | 
24.3% | 74.5% | O=CNC(Cc1ccc(Cl)cc1Cl)CN1CCC(Cc2ccccc2)CC1 (stereo not shown) |  | 
25.7% | 45.7% | O=[N+]([O-])c1cccc(S(=O)(=O)NC(CCN2CCC(Cc3ccccc3)CC2)c2ccccc2)c1 (stereo not shown) |  | 
72.7% | 66.1% | CNC(Cc1ccc(Cl)c(Cl)c1)CN1CCC(Cc2ccccc2)CC1 (stereo not shown) |  | 
54.1% | 36.3% | CNC(CCN1CCC(Cc2ccccc2)CC1)c1ccccc1 (stereo not shown) |  | 
21.4% | 43.1% | N[C@@H](Cc1ccccc1)CN1CCC(C(=O)Cc2ccccc2)CC1 |  | 
39.7% | 25.5% | NC(CCN1CCC(Cc2ccccc2)CC1)c1ccccc1 (stereo not shown) |  | 
28.7% | 2.2% | NC(CCN1CCC(C(=O)Cc2ccccc2)CC1)c1ccccc1 (stereo not shown) |  | 
5.2% | 44.3% | O=C(NC(CCN1CCC(Cc2ccccc2)CC1)c1ccccc1)c1ccccc1 (stereo not shown) |  | 
73% | 82.9% | N[C@@H](Cc1ccccc1)CN1CCC(C(=O)c2cccc(Cl)c2)CC1 |  | 
24.3% | 3.7% | CC(C)(C)c1ccc(CC(N)CCN2CCC(Cc3ccccc3)CC2)cc1 (stereo not shown) |  | 
34.9% | 23.5% | NC(Cc1ccc(Cl)cc1)CN1CCC(C(=O)c2ccc(Cl)cc2)CC1 (stereo not shown) |  | 
48.3% | 56.9% | NC(Cc1ccc(Cl)cc1Cl)CN1CCC(Cc2ccccc2)CC1 (stereo not shown) |  | 
26.3% | 28.2% | O=CNC(CCN1CCC(Cc2ccccc2)CC1)c1ccccc1 (stereo not shown) |  | 
 |  | Clc1ccc(CCNC(CCN2CCCCCC2)c2ccccc2)cc1Cl (stereo not shown) | 10.2 nM | 70.2%
48.3% | 13.7% | NC(CCN1CCC(C(=O)c2ccccc2)CC1)c1ccccc1 (stereo not shown) |  | 
50.5% | 25.2% | CNC(CCN1CCC(C(=O)c2ccc(F)cc2)CC1)c1ccccc1 (stereo not shown) |  | 
39.9% | 71.9% | O=CNC(Cc1ccc(Cl)c(Cl)c1)CN1CCC(Cc2ccccc2)CC1 (stereo not shown) |  | 

inhibition at 0.01 µM (sigma-2 receptor; [1]) | inhibition at 0.01 µM (sigma-1 receptor) | Structure (SMILES) | IC50 (sigma-1 receptor) | inhibition at 0.01 µM (sigma-2 receptor; [2])
30.9% | 3.2% | COc1ccc(C(=O)C2CCN(CCC(N)c3ccccc3)CC2)cc1 (stereo not shown) |  | 
26.4% | -2% | CN(C=O)C(CCN1CCC(Cc2ccccc2)CC1)c1ccccc1 (stereo not shown) |  | 
34% | 33.6% | NC(Cc1ccccc1)CN1CCC(C(=O)c2ccccc2)CC1 (stereo not shown) |  | 
47.2% | 10.7% | NC(Cc1ccc(Cl)c(Cl)c1)CN1CCC(C(=O)c2ccc(Cl)c(Cl)c2)CC1 (stereo not shown) |  | 
 |  | CC(C)(C)c1ccc(CC(N)CN2CCCCCC2)cc1 (stereo not shown) | 2.1 nM | 55.7%
31.3% | 42.9% | NC(Cc1cccc(C(F)(F)F)c1)CN1CCCCCC1 (stereo not shown) |  | 
43.7% | 7.9% | NC(CCN1CCC(C(=O)c2ccc(Cl)cc2)CC1)c1ccccc1 (stereo not shown) |  | 
57.3% | -1.9% | NC(CCN1CCC(C(=O)c2ccc(F)cc2)CC1)c1ccccc1 (stereo not shown) |  | 
 |  | CC(C)(C)c1ccc(CC(CN2CCCCCC2)NCc2ccccc2)cc1 (stereo not shown) | 10 nM | 
22.6% | 28.8% | Clc1ccc(CCNC(CCN2CCC(Cc3ccccc3)CC2)c2ccccc2)cc1Cl (stereo not shown) |  | 
48.5% | 31.1% | NC(Cc1ccc(Cl)cc1)CN1CCC(C(=O)c2ccc(F)cc2)CC1 (stereo not shown) |  | 
56.6% | 60.8% | N[C@@H](Cc1ccccc1)CN1CCC(C(=O)c2ccc(Cl)c(Cl)c2)CC1 |  | 
30% | 47.4% | CC(C)(C)c1ccc(CC(N)CN2CCC(C(=O)c3ccccc3)CC2)cc1 (stereo not shown) |  | 
 |  | NC(Cc1ccc(Cl)c(Cl)c1)CN1CCCCCC1 (stereo not shown) | 12.1 nM | 12.5%
39.6% | 10.8% | NC(Cc1ccc(Cl)c(Cl)c1)CN1CCC(C(=O)c2ccccc2)CC1 (stereo not shown) |  | 
 |  | CNC(Cc1ccc(C(C)(C)C)cc1)CN1CCCCCC1 (stereo not shown) | 2.5 nM | 27.4%
57.9% | 63.2% | CNC(Cc1ccc(C(C)(C)C)cc1)CN1CCC(Cc2ccccc2)CC1 (stereo not shown) |  | 
21.6% | 7.1% | NC(CCCN1CCCCCC1)c1ccccc1 (stereo not shown) |  | 
 |  | O=C(Cc1ccc(Cl)c(Cl)c1)NC(CCN1CCCCCC1)c1ccccc1 (stereo not shown) | 10.8 nM | 27.1%
53.6% | 61% | N[C@@H](Cc1ccccc1)CN1CCC(C(=O)c2ccc(Cl)cc2)CC1 |  | 

Structure (SMILES) | inhibition at 0.01 µM (sigma-2 receptor; [1]) | inhibition at 0.01 µM (sigma-1 receptor) | IC50 (sigma-1 receptor) | inhibition at 0.01 µM (sigma-2 receptor; [2])
O=[N+]([O-])c1ccc(S(=O)(=O)NC(CCN2CCC(Cc3ccccc3)CC2)c2ccccc2)c([N+](=O)[O-])c1 (stereo not shown) | 40.6% | 5.7% |  | 
